Test results taken from PubChem BioAssay AID192 (DTP/NCI, 2004).
Values joined by “and” are separate entries in the source; they are usually repeats but may differ in a detail not shown here. Equal values may be shown once. Inconclusive results and toxic doses are left out. Numbered stars: 1 amine (or outer) side, 2 acyl side, 3 side chain; on linkers, the order of the positions; unused ones are H or OH. Peptide text beside a SMILES is read from it. γGlu = O=C(O)[CH](CCC(=O)[*:2])N[*:1]

Tested on: BDF1 mice, B16 melanoma ip, median survival T/C
Experiment: NCI In Vivo Anticancer Drug Screen. Data for tumor model B16 Melanoma (intraperitoneal) in B6D2F1 (BDF1) mice
Settings: endpoint: median survival time, higher = longer survival
Summary of the method: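 Tumor-bearing mice received test compound or vehicle. Survival or tumor size was then measured in both groups. The treated-group figure was divided by the control-group figure.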

[1] = dose: 12.5 mg/kg/injection, schedule: Q01DX009 (ip), vehicle: saline with Tween-80
[2] = dose: 25.0 mg/kg/injection, schedule: Q01DX009 (ip), vehicle: saline with Tween-80
[3] = dose: 25.0 mg/kg/injection, schedule: Q01DX009 (ip), vehicle: saline
[4] = dose: 12.5 mg/kg/injection, schedule: Q01DX009 (ip), vehicle: Klucel (hydroxypropylcellulose) (HPC)
[5] = dose: 25.0 mg/kg/injection, schedule: Q01DX009 (ip), vehicle: Klucel (hydroxypropylcellulose) (HPC)
[6] = dose: 50.0 mg/kg/injection, schedule: Q01DX009 (ip), vehicle: Klucel (hydroxypropylcellulose) (HPC)
[7] = dose: 100.0 mg/kg/injection, schedule: Q01DX009 (ip), vehicle: Klucel (hydroxypropylcellulose) (HPC)
[8] = dose: 200.0 mg/kg/injection, schedule: Q01DX009 (ip), vehicle: Klucel (hydroxypropylcellulose) (HPC)
[9] = dose: 400.0 mg/kg/injection, schedule: Q01DX009 (ip), vehicle: Klucel (hydroxypropylcellulose) (HPC)
[10] = dose: 100.0 mg/kg/injection, schedule: Q01DX009 (ip), vehicle: saline with Tween-80
[11] = dose: 200.0 mg/kg/injection, schedule: Q01DX009 (ip), vehicle: saline with Tween-80
[12] = dose: 12.5 mg/kg/injection, schedule: Q04DX003 (ip), vehicle: Klucel (hydroxypropylcellulose) (HPC)
[13] = dose: 25.0 mg/kg/injection, schedule: Q04DX003 (ip), vehicle: Klucel (hydroxypropylcellulose) (HPC)
[14] = dose: 50.0 mg/kg/injection, schedule: Q04DX003 (ip), vehicle: Klucel (hydroxypropylcellulose) (HPC)
[15] = dose: 100.0 mg/kg/injection, schedule: Q04DX003 (ip), vehicle: Klucel (hydroxypropylcellulose) (HPC)
[16] = dose: 50.0 mg/kg/injection, schedule: Q01DX009 (ip), vehicle: saline with Tween-80

## CC[C@@]1(O)C[C@H](OC2CC(N(C)C)C(O)C(C)O2)c2c(O)c3c(c(O)c2[C@H]1OC1CC(N(C)C)C(O)C(C)O1)C(=O)c1cccc(O)c1C3=O (some centres undefined)
dose: 31.2 micrograms/kg/injection, schedule: Q01DX009 (ip), vehicle: Klucel (hydroxypropylcellulose) (HPC)
  T/C: 100 % of control
dose: 62.5 micrograms/kg/injection, schedule: Q01DX009 (ip), vehicle: Klucel (hydroxypropylcellulose) (HPC)
  T/C: 89 % of control

## CCOC(=O)CNC(=O)CCCCSc1ncnc2nc[nH]c12
dose: 20.0 mg/kg/injection, schedule: Q01DX009 (ip), vehicle: Klucel (hydroxypropylcellulose) (HPC)
  T/C: 88 % of control
dose: 40.0 mg/kg/injection, schedule: Q01DX009 (ip), vehicle: Klucel (hydroxypropylcellulose) (HPC)
  T/C: 91 % of control
dose: 80.0 mg/kg/injection, schedule: Q01DX009 (ip), vehicle: Klucel (hydroxypropylcellulose) (HPC)
  T/C: 89 % of control
dose: 160.0 mg/kg/injection, schedule: Q01DX009 (ip), vehicle: Klucel (hydroxypropylcellulose) (HPC)
  T/C: 89 % of control
dose: 320.0 mg/kg/injection, schedule: Q01DX009 (ip), vehicle: Klucel (hydroxypropylcellulose) (HPC)
  T/C: 87 % of control

## FC(F)(F)c1ccc2c(c1)N(CCCN1CCN(CCOc3ccccc3)CC1)c1ccccc1S2
dose: 2.0 mg/kg/injection, schedule: Q01DX009 (ip), vehicle: saline
  T/C: 121 % of control

## O=C1NC2C(NC(=O)N2Cl)N1Cl (centres undefined)
dose: 3.13 mg/kg/injection, schedule: Q01DX009 (ip), vehicle: saline with Tween-80
  T/C: 101 % of control
dose: 6.25 mg/kg/injection, schedule: Q01DX009 (ip), vehicle: saline with Tween-80
  T/C: 98 % of control
[1]
  T/C: 90 % of control and 98 % of control
dose: 12.5 mg/kg/injection, schedule: Q01DX009 (ip), vehicle: saline
  T/C: 101 % of control
[2]
  T/C: 86 % of control
[3]
  T/C: 94 % of control
dose: 25.0 mg/kg/injection, schedule: Q04DX003 (ip), vehicle: saline with Tween-80
  T/C: 105 % of control

## O=S1(=O)CC(Cl)(Br)C1 (tested in a mixture with another compound)
[4]
  T/C: 105 % of control
[5]
  T/C: 108 % of control
[6]
  T/C: 108 % of control
[7]
  T/C: 93 % of control and 108 % of control

## Cc1ccc(S(=O)(=O)N2CCn3ncc(C#N)c32)cc1
[6]
  T/C: 100 % of control
[7]
  T/C: 103 % of control
[8]
  T/C: 103 % of control
[9]
  T/C: 96 % of control

## Cc1ccc(OC(=O)/C=C/C(=O)Oc2ccc(C)cc2)cc1
dose: 75.0 mg/kg/injection, schedule: Q04DX003 (ip), vehicle: Klucel (hydroxypropylcellulose) (HPC)
  T/C: 89 % of control
dose: 150.0 mg/kg/injection, schedule: Q04DX003 (ip), vehicle: Klucel (hydroxypropylcellulose) (HPC)
  T/C: 94 % of control
dose: 300.0 mg/kg/injection, schedule: Q04DX003 (ip), vehicle: Klucel (hydroxypropylcellulose) (HPC)
  T/C: 100 % of control

## CCCCNC(=O)Nc1ccc(C(=O)OCC(C)C)cc1
[10]
  T/C: 99 % of control
[11]
  T/C: 96 % of control

## [N-]=C(CC(=O)c1ccccc1)c1ccccc1.[N-]=C(CC(=O)c1ccccc1)c1ccccc1.[Ni+2]
dose: 3.0 mg/kg/injection, schedule: Q04DX003 (ip), vehicle: Klucel (hydroxypropylcellulose) (HPC)
  T/C: 86 % of control
dose: 6.0 mg/kg/injection, schedule: Q04DX003 (ip), vehicle: Klucel (hydroxypropylcellulose) (HPC)
  T/C: 93 % of control
dose: 12.0 mg/kg/injection, schedule: Q04DX003 (ip), vehicle: Klucel (hydroxypropylcellulose) (HPC)
  T/C: 88 % of control

## NC(=O)C(Cl)(Cl)Cl
[10]
  T/C: 105 % of control
[11]
  T/C: 96 % of control
dose: 400.0 mg/kg/injection, schedule: Q01DX009 (ip), vehicle: saline with Tween-80
  T/C: 98 % of control

## Cc1cccc(CN2CCN(C(c3ccccc3)c3ccc(Cl)cc3)CC2)c1 (centres undefined)
dose: 3.12 mg/kg/injection, schedule: Q04DX003 (ip), vehicle: Klucel (hydroxypropylcellulose) (HPC)
  T/C: 97 % of control
dose: 6.25 mg/kg/injection, schedule: Q04DX003 (ip), vehicle: Klucel (hydroxypropylcellulose) (HPC)
  T/C: 101 % of control
[4]
  T/C: 86 % of control
[12]
  T/C: 96 % of control
[5]
  T/C: 86 % of control
[13]
  T/C: 96 % of control
[6]
  T/C: 86 % of control
[14]
  T/C: 89 % of control
[15]
  T/C: 88 % of control

## O=S(=O)(O)c1ccc2cccc(N=Nc3c(O)ccc4ccccc34)c2c1
[1]
  T/C: 105 % of control
[2]
  T/C: 102 % of control
[16]
  T/C: 91 % of control

## CC[C@@H](C(=O)[C@@H](C)[C@@H](O)[C@H](C)CCc1ccc(C)c(O)c1C(=O)O)[C@H]1O[C@](CC)([C@H]2CC[C@](O)(CC)[C@H](C)O2)C[C@@H]1C
dose: 1.56 mg/kg/injection, schedule: Q01DX009 (ip), vehicle: Klucel (hydroxypropylcellulose) (HPC)
  T/C: 111 % of control
dose: 3.12 mg/kg/injection, schedule: Q01DX009 (ip), vehicle: Klucel (hydroxypropylcellulose) (HPC)
  T/C: 102 % of control
dose: 6.25 mg/kg/injection, schedule: Q01DX009 (ip), vehicle: Klucel (hydroxypropylcellulose) (HPC)
  T/C: 111 % of control

## Cc1ccc([N+](=O)[O-])c(OC(=O)Nc2ccccc2Cl)c1
[15]
  T/C: 100 % of control
dose: 200.0 mg/kg/injection, schedule: Q04DX003 (ip), vehicle: Klucel (hydroxypropylcellulose) (HPC)
  T/C: 93 % of control
dose: 400.0 mg/kg/injection, schedule: Q04DX003 (ip), vehicle: Klucel (hydroxypropylcellulose) (HPC)
  T/C: 93 % of control

## NC(CCC(=O)NC(CCC(=O)O)C(=O)NC(CCC(=O)O)C(=O)O)C(=O)O (stereo not drawn) (γGlu-Glu-Glu-OH; configuration not given here)
dose: 50.0 mg/kg/injection, schedule: Q01DX009 (ip), vehicle: saline
  T/C: 92 % of control
dose: 100.0 mg/kg/injection, schedule: Q01DX009 (ip), vehicle: saline
  T/C: 96 % of control
dose: 200.0 mg/kg/injection, schedule: Q01DX009 (ip), vehicle: saline
  T/C: 89 % of control

## C[C@H]1C(=O)O[C@@H]2CCN3CC=C(COC(=O)[C@](C)(O)[C@@]1(C)O)[C@H]23
[3]
  T/C: 123 % of control

## O=C(/C=C/c1ccncc1)c1ccccc1
[12]
  T/C: 93 % of control
[13]
  T/C: 110 % of control
[14]
  T/C: 103 % of control
[15]
  T/C: 99 % of control

## COc1cc(C=Nc2ccc(-c3nc(Cc4ccccc4)sc3C)cc2)ccc1N(CCCl)CCCl
[4]
  T/C: 175 % of control and 186 % of control
[5]
  T/C: 191 % of control

## CCC1NC(=O)C(NC(=O)c2ncccc2O)C(C)OC(=O)C(c2ccccc2)NC(=O)C2CC(=O)CCN2C(=O)C(Cc2ccccc2)N(C)C(=O)C2CCCN2C1=O (centres undefined) (tested in a mixture with another compound)
dose: 18.75 mg/kg/injection, schedule: Q01DX009 (ip), vehicle: Klucel (hydroxypropylcellulose) (HPC)
  T/C: 104 % of control
dose: 37.5 mg/kg/injection, schedule: Q01DX009 (ip), vehicle: Klucel (hydroxypropylcellulose) (HPC)
  T/C: 108 % of control
dose: 75.0 mg/kg/injection, schedule: Q01DX009 (ip), vehicle: Klucel (hydroxypropylcellulose) (HPC)
  T/C: 108 % of control

## Cc1ccc(NC(=O)c2ccccc2)c(C)c1
[16]
  T/C: 95 % of control
dose: 50.0 mg/kg/injection, schedule: Q04DX003 (ip), vehicle: saline with Tween-80
  T/C: 97 % of control
[10]
  T/C: 105 % of control
dose: 100.0 mg/kg/injection, schedule: Q04DX003 (ip), vehicle: saline with Tween-80
  T/C: 100 % of control
[11]
  T/C: 92 % of control
dose: 200.0 mg/kg/injection, schedule: Q04DX003 (ip), vehicle: saline with Tween-80
  T/C: 90 % of control

## Cc1cccc(NC(=O)c2ccc(Cl)cc2)c1C
[7]
  T/C: 93 % of control
[8]
  T/C: 89 % of control
[9]
  T/C: 89 % of control
